In brackets after ≈: the same amount, converted by molar mass.
Key:
[1] = test system: S. aureus MRSA clinical isolate penicillin and erythromycin resistant; experiment: broth microdilution MIC (CLSI); type: cell-based; conditions: Staphylococcus aureus; S. aureus MRSA clinical isolate penicillin and erythromycin resistant; read-out: Antibacterial activity (MIC)
Experimental: (§1) Using a broth microdilution assay according to Clinical Laboratory Standards Institute (CSLI) guidelines, we tested 5-(2,5-bis(4-chloro-2-isopropylphenyl)thiophen-3-yl)-1H-tetrazole (“Test Article” in below table) to establish MICs against a broad range of MDR bacteria and noted substantive activity versus methicillin-resistant Staphylococcus aureus (MRSA), vancomycin-resistant Enterococcus (VRE) and Streptococcus spp. Antimicrobial susceptibility testing was performed by a microdilution broth assay according to CLSI guidelines. The inoculum was prepared from stationary-phase cultures diluted in water. Microtiter plate wells received aliquots of 100 μL of the compound diluted in Mueller-Hinton II cation adjusted media. The final concentration of compound typically ranged from 250 to 0.125 μg/ml in serial two-fold dilutions. In addition to the test compound, growth and sterility controls were included, along with DMSO vehicle control rows. The microtiter plates were inoculated with 5×10^5 bacteria and incubated overnight at 35° C. in a humidified atmosphere.

[2] = test system: E. faecalis ATCC51599 vancomycin resistant; experiment: broth microdilution MIC (CLSI); type: cell-based; conditions: Enterococcus faecalis, read-out: Antibacterial activity (MIC)
Experimental: as §1

[3] = test system: S. epidermidis NRS7 vancomycin intermediate; experiment: broth microdilution MIC (CLSI); type: cell-based; conditions: Staphylococcus epidermidis, read-out: Antibacterial activity (MIC)
Experimental: as §1

S. aureus MRSA ATCC43300 = experiment: broth microdilution MIC (CLSI); type: cell-based; conditions: Staphylococcus aureus; S. aureus MRSA ATCC43300; read-out: Antibacterial activity (MIC)
Experimental: as §1

[4] = test system: S. aureus MRSA clinical isolate multi resistant; experiment: broth microdilution MIC (CLSI); type: cell-based; conditions: Staphylococcus aureus; S. aureus MRSA clinical isolate multi resistant; read-out: Antibacterial activity (MIC)
Experimental: as §1

[5] = test system: S. aureus MRSA USA200 epidemic strain; experiment: broth microdilution MIC (CLSI); type: cell-based; conditions: Staphylococcus aureus; S. aureus MRSA USA200 epidemic strain; read-out: Antibacterial activity (MIC)
Experimental: as §1

[6] = test system: S. aureus MRSA clinical isolate from Manchester; experiment: broth microdilution MIC (CLSI); type: cell-based; conditions: Staphylococcus aureus; S. aureus MRSA clinical isolate from Manchester; read-out: Antibacterial activity (MIC)
Experimental: as §1

[7] = test system: E. faecium ATCC51299 vancomycin resistant; experiment: broth microdilution MIC (CLSI); type: cell-based; conditions: Enterococcus faecium, read-out: Antibacterial activity (MIC)
Experimental: as §1

[8] = test system: S. aureus MRSA MISA MU50 NRS1; experiment: broth microdilution MIC (CLSI); type: cell-based; conditions: Staphylococcus aureus; S. aureus MRSA MISA MU50 NRS1; read-out: Antibacterial activity (MIC)
Experimental: as §1

[9] = dermal pharmacokinetics on full thickness human cadaver skin (Franz cells); type: in vitro ADME; conditions: 2% w/w in GLAXAL BASE
Description: Full thickness human skin was taken from the torso of a post-mortem human donor and stores at −80 degrees Celsius. On the day of the study, skin pieces were thawed for at least […] at room temperature in saline, then divided into individual pieces of approximately 2 cm length×2 cm width from which seven pieces of full thickness skin was selected. Approximately ⅔ of the width of the hypodermis layer was trimmed in order to mount the selected pieces into Franz cells. Receiver buffer was prepared (Krebs-Ringer bicarbonate buffer containing 10 mM HEPES, 15 mM sodium bicarbonate, and 1.2 mM calcium chloride; adjusted to pH 7.4 and fortified with 0.1% sodium azide and 1% bovine serum albumin). Each piece was equilibrated for 30 min with 12 mL of receiver buffer at 32 degrees Celsius by a water-jacket/stirring module running at 600 rpm. Transepithelial water loss was read for each piece after 30 mins using a vapometer. Exposed surface area of the piece was 1.77 square cm.
Approximately 300 ul of 5-(2,5-bis(4-chloro-2-isopropylphenyl)thiophen-3-yl)-1H-tetrazole formulated in 2% w/w GLAXAL BASE™ (Emollient Cream) was applied directly through syringe on top of each piece. Receiver samples were taken from the receiver compartment of each Franz cell at 3, 6, 12, 18, and 24 hours and replaced with an equal volume of fresh, warm buffer to maintain sink conditions. At the end of 24 hours, the bulk amount of formulation remaining on each piece of skin was wiped using cotton tips, stored together in a dry vial for analysis. Epidermis and dermis were then separated gently using forceps after a brief heat treatment at 60 degrees Celsius for no longer than 2 minutes. Each layer was then blotted dry, weighted and stored in separate glass vials. All samples were stored at −80 degrees Celsius until analysis by LC/MS-MS.
The cumulative concentrations of 5-(2,5-bis(4-chloro-2-isopropylphenyl)thiophen-3-yl)-1H-tetrazole that permeated at each time point were calculated by the sum of the measured concentration at that time point plus 1/12 of the measured concentrations at the previous time points (since 1 mL out of the 12 mL total receiver volume is withdrawn and replaced each time). The flux values over the course of the 24 hour permeation period were calculated from the slope of the linear portion of the curve. Flux was represented by the equation Flux=d[(Cr-T×Vr)/dt/A where Cr-T is the cumulative concentration at each time point (ng/mL); Vr is 12 mL; t is duration in hours; and A is the surface area of 1.77 square cm.

Clostridium spp. = experiment: activity against Clostridium spp.; type: cell-based
[10] = test system: mupirocin resistant strains of E. faecalis VRE; experiment: activity against mupirocin resistant strains; type: cell-based
[11] = end of 24 hour permeation, LC-MS/MS

SMILES: CC(C)c1cc(Cl)ccc1-c1cc(-c2nnn[nH]2)c(-c2ccc(Cl)cc2C(C)C)s1 [Test Article, 5-(2,5-bis(4-chloro-2-isopropylphenyl)thiophen-3-yl)-1H-tetrazole]
- MIC [1]: 0.5 µg/mL (≈ 1.09 µM)
- MIC [2]: 0.5 µg/mL (≈ 1.09 µM)
- MIC [3]: 1 µg/mL (≈ 2.19 µM)
- MIC (S. aureus MRSA ATCC43300): 0.5 µg/mL (≈ 1.09 µM)
- MIC [4]: 0.5 µg/mL (≈ 1.09 µM)
- MIC [5]: 0.5 µg/mL (≈ 1.09 µM)
- MIC [6]: 0.5 µg/mL (≈ 1.09 µM)
- MIC [7]: 1 µg/mL (≈ 2.19 µM)
- MIC [8]: 0.5 µg/mL (≈ 1.09 µM)
- Flux from top through to bottom of skin ([9]; 24 hour permeation period): less than 0.141 ng/hr/cm^2
- compound in the receiver samples ([9]; end of 24 hour permeation period, lower limit of detection 0.5 ng/mL): no detectable
- level in dermis [9, 11]: 0.821±0.469 ng per mg tissue
- level in epidermis [9, 11]: 163±58.0 ng per mg tissue
- level in hypodermis [9, 11]: 1.86±1.04 ng per mg tissue
- activity (Clostridium spp.): retained activity
- activity [10]: retained activity
